According to patent US8680272B2, “3-arylethynyl substituted quinazolinone compounds” (Council of Scientific & Industrial Research, priority 2011, dated 2014):

Assays:
SF-539 = assay: Anticancer activity, SRB assay, CNS cell line SF-539; assay type: cell-based, human; details: Homo sapiens; CNS SF-539; 48 h continuous drug exposure; —^b means GI50 values not attained at the concentrations used; read-out: Growth Inhibition GI50
Description: (§1) Some of biological activity studies were carried out at the National Cancer Institute (NCI), Maryland, USA.
(§2) The compounds were evaluated for anticancer activity against sixty human cancer cells derived from nine cancer types (leukemia cell line, non-small-cell lung cell line, colon cell line, CNS cell line, melanoma cell line, ovarian cell line, prostate cell line, renal cell line and breast cancer cell line) as shown in Table 1. For each compound, dose response curves for each cell line were measured at a minimum of five concentrations at 10 fold dilutions. A protocol of 48 h continuous drug exposure was used and a sulforhodamine B (SRB) protein assay was used to estimate cell viability or growth.

U251 = assay: Anticancer activity, SRB assay, CNS cell line U251; assay type: cell-based; details: Homo sapiens, U-251, 48 h continuous drug exposure, read-out: Growth Inhibition GI50
Description: as §1, §2

OVCAR-3 = assay: Anticancer activity, SRB assay, ovarian cell line OVCAR-3; assay type: cell-based; details: Homo sapiens; Ovarian OVCAR-3; 48 h continuous drug exposure; read-out: Growth Inhibition GI50
Description: as §1, §2

UACC-62 = assay: Anticancer activity, SRB assay, melanoma cell line UACC-62; assay type: cell-based; details: Homo sapiens; Melanoma UACC-62; 48 h continuous drug exposure; read-out: Growth Inhibition GI50
Description: as §1, §2

M14 = assay: Anticancer activity, SRB assay, melanoma cell line M14; assay type: cell-based; details: Homo sapiens, 48 h continuous drug exposure, read-out: Growth Inhibition GI50
Description: as §1, §2

RPMI-8226 = assay: Anticancer activity, SRB assay, leukemia cell line RPMI-8226; assay type: cell-based; details: Homo sapiens; Leukemia RPMI-8226; 48 h continuous drug exposure; read-out: Growth Inhibition GI50
Description: as §1, §2

IGROV1 = assay: Anticancer activity, SRB assay, ovarian cell line IGROV1; assay type: cell-based, human; details: Homo sapiens, IGROV-1, 48 h continuous drug exposure, —^b means GI50 values not attained at the concentrations used, read-out: Growth Inhibition GI50
Description: as §1, §2

SK-MEL-28 = assay: Anticancer activity, SRB assay, melanoma cell line SK-MEL-28; assay type: cell-based, human; details: Homo sapiens; Melanoma SK-MEL-28; 48 h continuous drug exposure; —^b means GI50 values not attained at the concentrations used; read-out: Growth Inhibition GI50
Description: as §1, §2

HL-60(TB) = assay: Anticancer activity, SRB assay, leukemia cell line HL-60(TB); assay type: cell-based; details: Homo sapiens; Leukemia HL-60(TB); 48 h continuous drug exposure; read-out: Growth Inhibition GI50
Description: as §1, §2

SK-MEL-2 = assay: Anticancer activity, SRB assay, melanoma cell line SK-MEL-2; assay type: cell-based, human; details: Homo sapiens; Melanoma SK-MEL-2; 48 h continuous drug exposure; —^b means GI50 values not attained at the concentrations used; read-out: Growth Inhibition GI50
Description: as §1, §2

OVCAR-8 = assay: Anticancer activity, SRB assay, ovarian cell line OVCAR-8; assay type: cell-based, human; details: Homo sapiens; Ovarian OVCAR-8; 48 h continuous drug exposure; —^b means GI50 values not attained at the concentrations used; read-out: Growth Inhibition GI50
Description: as §1, §2

HS 578T = assay: Anticancer activity, SRB assay, breast cell line HS 578T; assay type: cell-based, human; details: Homo sapiens; Breast HS 578T; 48 h continuous drug exposure; —^b means GI50 values not attained at the concentrations used; read-out: Growth Inhibition GI50
Description: as §1, §2

MDA-MB-435 = assay: Anticancer activity, SRB assay, melanoma cell line MDA-MB-435; assay type: cell-based, human; details: Homo sapiens; Melanoma MDA-MB-435; 48 h continuous drug exposure; —^b means GI50 values not attained at the concentrations used; read-out: Growth Inhibition GI50
Description: as §1, §2

HCT-116 = assay: Anticancer activity, SRB assay, colon cell line HCT-116; assay type: cell-based; details: Homo sapiens; Colon HCT-116; 48 h continuous drug exposure; read-out: Growth Inhibition GI50
Description: as §1, §2

NCI-H460 = assay: Anticancer activity, SRB assay, non-small lung cell line NCI-H460; assay type: cell-based; details: Homo sapiens, Non-small lung NCl-H460, 48 h continuous drug exposure, read-out: Growth Inhibition GI50
Description: as §1, §2

MDA-MB-231/ATCC = assay: Anticancer activity, SRB assay, breast cell line MDA-MB-231/ATCC; assay type: cell-based; details: Homo sapiens; Breast MDA-MB-231/ATCC; 48 h continuous drug exposure; read-out: Growth Inhibition GI50
Description: as §1, §2

UACC-257 = assay: Anticancer activity, SRB assay, melanoma cell line UACC-257; assay type: cell-based; details: Homo sapiens; Melanoma UACC-257; 48 h continuous drug exposure; read-out: Growth Inhibition GI50
Description: as §1, §2

KM12 = assay: Anticancer activity, SRB assay, colon cell line KM12; assay type: cell-based; details: Homo sapiens, 48 h continuous drug exposure, read-out: Growth Inhibition GI50
Description: as §1, §2

[1] = tested on: six leukemia cancer cell lines (CCRF-CEM, HL-60, K-562, MOLT-4, SR and RPMI-8226); assay: Anticancer activity, SRB assay, leukemia panel; assay type: cell-based, human
Description: as §1, §2

SW-620 = assay: Anticancer activity, SRB assay, colon cell line SW-620; assay type: cell-based; details: Homo sapiens; Colon SW-620; 48 h continuous drug exposure; read-out: Growth Inhibition GI50
Description: as §1, §2

K-562 = assay: Anticancer activity, SRB assay, leukemia cell line K-562; assay type: cell-based; details: Homo sapiens, K562; Leukemia K-562; 48 h continuous drug exposure; read-out: Growth Inhibition GI50
Description: as §1, §2

T-47D = assay: Anticancer activity, SRB assay, breast cell line T-47D; assay type: cell-based, human; details: Homo sapiens, T47D; Breast T-47D; 48 h continuous drug exposure; —^b means GI50 values not attained at the concentrations used; read-out: Growth Inhibition GI50
Description: as §1, §2

SK-MEL-5 = assay: Anticancer activity, SRB assay, melanoma cell line SK-MEL-5; assay type: cell-based; details: Homo sapiens; Melanoma SK-MEL-5; 48 h continuous drug exposure; read-out: Growth Inhibition GI50
Description: as §1, §2

[2] = tested on: six breast cancer cell line (MCF-7, MDA-MB-231/ATCC, HS 578T, TD-47D, MDA-MB-468 and BT-549); assay: Anticancer activity, SRB assay, breast panel; assay type: cell-based, human
Description: as §1, §2

NCI/ADR-RES = assay: Anticancer activity, SRB assay, ovarian cell line NCI/ADR-RES; assay type: cell-based, human; details: Homo sapiens, NCI/ADR-RES; Ovarian NCl/ADR-RES; 48 h continuous drug exposure; —^b means GI50 values not attained at the concentrations used; read-out: Growth Inhibition GI50
Description: as §1, §2

[3] = tested on: six CNS cancer cell line (SF-268, SF-295, SF-539, SNB-19, SNB-75 and U251); assay: Anticancer activity, SRB assay, CNS panel; assay type: cell-based, human
Description: as §1, §2

`Cc1cc(C#Cc2ccccc2)ccc1-n1c(/C=C/c2ccc(O)cc2)nc2ccccc2c1=O` [Compound 4b, (E)-2-(4-Hydroxystyryl)-3-(2-methyl-4-(phenylethynyl)phenyl)quinazolin-4(3H)-one] showed a GI50 (SF-539) of 5.65 µM, a GI50 (U251) of 4.33 µM and a GI50 (OVCAR-3) of 3.6 µM. For the same molecule, the GI50 (UACC-62) was 3.48 µM, the GI50 (M14) was 3.26 µM and the GI50 (RPMI-8226) was 2.33 µM. It also gave a GI50 (IGROV1) of 20.6 µM, a GI50 (SK-MEL-28) of 4.54 µM and a GI50 (HL-60(TB)) of 1.66 µM. For the same molecule, the GI50 (SK-MEL-2) was 1.93 µM, the GI50 (OVCAR-8) was 3.98 µM and the GI50 (HS 578T) was 2.48 µM. It also gave a GI50 (MDA-MB-435) of 2.82 µM, a GI50 (HCT-116) of 2.66 µM and a GI50 (NCI-H460) of 2.22 µM. The GI50 (MDA-MB-231/ATCC) was 3.89 µM, the GI50 (UACC-257) was 4.18 µM and the GI50 (KM12) was 3.24 µM. For the same molecule, the GI50 ([1]; Homo sapiens, six leukemia cancer cell lines, exposure period of at least 48 h, read-out: GI50 (range over the panel)) was 1.66 to 3.26 µM, the “mean graph midpoint values (MG_MID) of log10 TGI (Log10TGI50)” value (shortened to “mean graph midpoint values … (Log10TGI50)”) ([1]; Leukemia, log value of concentration of the compound resulting in total inhibition of net cell growth) was −4.49 and the “mean graph midpoint values (MG_MID) of Log10LC50” value ([1]; Leukemia, log value of the concentration of compounds leading to 50% net cell death) was greater than −4.00. The “mean graph midpoint values (MG_MID) of Log10GI50” value ([1]; Leukemia, log values of concentration in mol/L causing 50% inhibition of net cell growth) was −5.64 mol/L, the GI50 (SW-620) was 4.08 µM and the GI50 (K-562) was 2 µM. For the same molecule, the GI50 (T-47D) was 2.02 µM, the GI50 (SK-MEL-5) was 1.77 µM and the “mean graph midpoint values … (Log10TGI50)” value ([2]; Breast, log value of concentration of the compound resulting in total inhibition of net cell growth) was −4.58. For the same molecule, the “mean graph midpoint values (MG_MID) of Log10LC50” value ([2]; Breast, log value of the concentration of compounds leading to 50% net cell death) was greater than −4.00, the “mean graph midpoint values (MG_MID) of Log10GI50” value ([2]; Breast, log values of concentration in mol/L causing 50% inhibition of net cell growth) was −5.54 mol/L and the GI50 ([2]; Homo sapiens, six breast cancer cell line, exposure period of at least 48 h, read-out: GI50 (range over the panel)) was 2.02 to 3.89 µM. For the same molecule, the GI50 (NCI/ADR-RES) was 3.09 µM, the “mean graph midpoint values … (Log10TGI50)” value ([3]; CNS, log value of concentration of the compound resulting in total inhibition of net cell growth) was −4.21 and the “mean graph midpoint values (MG_MID) of Log10LC50” value ([3]; CNS, log value of the concentration of compounds leading to 50% net cell death) was greater than −4.00. The “mean graph midpoint values (MG_MID) of Log10GI50” value ([3]; CNS, log values of concentration in mol/L causing 50% inhibition of net cell growth) was −5.35 mol/L and the GI50 ([3]; Homo sapiens, six CNS cancer cell line, exposure period of at least 48 h, read-out: GI50 (range over the panel)) was 2.85 to 6.91 µM.
